Test results taken from paper PMC6141003 (Biochimie, 2017).

Columns and labels:
[1] = target: T1, GLUT1 (Mus musculus, UniProt P17809); experiment: [3H]-2-deoxyglucose uptake in L929 fibroblasts; assay type: cell-based
T1 sequence (P17809 1-492): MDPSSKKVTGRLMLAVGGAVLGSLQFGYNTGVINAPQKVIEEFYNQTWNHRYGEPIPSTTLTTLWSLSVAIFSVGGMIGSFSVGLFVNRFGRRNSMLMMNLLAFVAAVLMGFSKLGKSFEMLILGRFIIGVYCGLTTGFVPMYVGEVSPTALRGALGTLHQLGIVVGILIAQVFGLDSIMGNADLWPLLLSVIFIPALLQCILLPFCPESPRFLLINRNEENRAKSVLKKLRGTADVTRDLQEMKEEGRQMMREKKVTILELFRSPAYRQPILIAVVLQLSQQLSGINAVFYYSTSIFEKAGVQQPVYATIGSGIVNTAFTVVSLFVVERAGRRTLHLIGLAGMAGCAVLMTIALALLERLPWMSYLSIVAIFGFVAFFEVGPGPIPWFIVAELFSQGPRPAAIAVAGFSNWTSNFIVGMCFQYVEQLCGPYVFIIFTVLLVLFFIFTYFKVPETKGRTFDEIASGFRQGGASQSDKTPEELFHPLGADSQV

[2] = target: T1, GLUT1; experiment: dose-dependent competition of [3H]-2DG uptake in L929 fibroblasts; assay type: cell-based

Structure (SMILES) | IC50 [1] | dose-dependent competition of [3H]-2DG uptake in L929 fibroblasts [2]
Cn1c(=O)c2c(ncn2C)n(C)c1=O [caffeine] | ~1400 µM | 
OC[C@H]1OC(O)[C@H](O)[C@@H](O)[C@@H]1O (some centres unmarked) [glucose] |  | glucose reduces 2DG uptake in a dose-dependent manner, and that caffeine adds to the inhibitory effects of glucose
